The values below come from patent US7816521B2, “1,2,4-benzotriazine-1,4-dioxides” (Auckland Uniservices Limited, priority 2004, dated 2010).

Data set [1] relates to human colon carcinoma cell line HT-29. In words: Proliferation assay (IC50) under aerobic and hypoxic conditions. The following applies: for IC50: Homo sapiens, HT-29, HT29, anoxic, 4 hr exposure; for HCR: hypoxic cytotoxicity ratio: aerobic IC50 / hypoxic IC50, HT29. Format: cell-based. Here is the method: Compounds representative of the invention were evaluated under both aerobic and hypoxic conditions in a proliferation assay (IC50) using the human colon carcinoma cell line HT-29 as previously described [Hay et al, J. Med. Chem, 2003, 46, 169]. For each experiment, compounds were simultaneously tested under both oxic and hypoxic conditions and included TPZ as an independent internal control at the front and back of the assay. In all cases, a 8-methyl-5-nitroquinoline derivative was used as a second internal control to confirm that strict hypoxia was present during the experiment [Siim et al., Br. J. Cancer 1994, 70, 596].

Data set [2] can be described thus: Solubility in culture medium. The class given is physicochemical. The settings on record: culture medium (αMEM with 5% foetal bovine serum), plasma or biological fluid, thermodynamic from solid; culture medium (αMEM, 5% foetal bovine serum), pH 7.4; no unit in table, threshold is 2 mM. Here is the method: Solubility is determined in laboratory culture medium (alpha minimal essential medium (αMEM) with 5% foetal bovine serum) saturated with 5% carbon dioxide at pH 7.4, by addition of excess compound and sonication at ambient temperature for 15 minutes. Alternatively the compound is diluted from a concentrated stock solution in DMSO into culture medium to give a final DMSO concentration <1%. The mixture is centrifuged at 13,000 rpm for 6 minutes and the concentration of drug in the supernatant solution is then determined by HPLC using a standard reference solution in a suitable solvent.

In data set [3] the test system is hypoxic cells in HT29 tumours. In words: HT29 excision assay (drug after 20 Gy radiation, clonogenic survival). Format: in vivo, human. The following applies: log10 kill of hypoxic cells in HT29 tumours, additional to radiation alone; MTD or 75% of MTD; Table 2. An excerpt: In order to test the validity of this PK/PD model as a tool for predicting the antitumour activity of TPZ analogues, the inventors determined the key PK/PD parameters for 13 TPZ analogues, and TPZ itself, for the HT29 human colon carcinoma cell line. These parameters were then used to calculate the expected killing in hypoxic regions of HT29 tumours following a single intraperitoneal dose of the compounds at their maximum tolerated dose. The results of this calculation were then compared with measured killing of hypoxic cells in HT29 tumours, determined by administering the compounds immediately (within 5 min) after gamma irradiation (cobalt 60, 20 Gy) to sterilise oxygenated cells in the tumours. Tumours were removed 18 hours later and the number of surviving cells determined by clonogenic assay. The measured PK/PD parameters, model prediction (using the above 3D microvascular network), and experimentally determined hypoxic cell kill is shown in Table 1, and the relationship between predicted and measured cell kill in FIG. 4. The prediction is statistically highly significant (p=0.001, Fisher exact test). […] If the extravascular transport component was excluded from the model, the R^2 for this regression was only 0.28 and the relationship was not statistically significant.
Animals were treated with radiation alone (RAD, 20 Gy whole body); RAD+TPZ (316 μmol/kg); compound 3 (562 μmol/kg); RAD+compound 3 (562 μmol/kg). Tumours were excised 18 hr after treatment and clonogenic survival determined by staining colonies 14 days later. Each symbol represents a separate tumour. p<0.01 (one way ANOVA with Dunnett's test) for RAD+compound 3 and for RAD+TPZ versus RAD only. Horizontal lines are the historical means for untreated controls (upper line) and 20 Gy radiation only (lower line).
Compounds were evaluated with single dose radiation using s.c. HT29 tumors (average of two largest diameters 7-10 mm) grown by inoculating 10^7 cells (obtained by enzymatic dissociation of multicellular spheroids). Drugs were administered as single i.p. doses at their MTD with the following groups in each experiment. A: vehicle control, B: test drug, C: Radiation (20 Gy, cobalt-60, whole body irradiation), D: TPZ (316 μmol/kg) 5 min after radiation, E: Test drug 5 min after radiation. Each group included 3 (A, B) or 5 (C-E) mice. Tumors were excised 18 hr after treatment and plated to determine clonogenicity. Hypoxic cytotoxicity is determined by the difference in surviving fraction between groups C and E, while comparison of A and B evaluates oxic cell killing. Total yield of clonogens was used as the key parameter if cell yields were affected by treatment. Results of this assay are illustrated for compound 3 (and TPZ) in FIG. 5.

Data set [4] in a line: Plasma pharmacokinetics, AUC of free drug in CD-1 nude mice. The settings on record: CD-1 nude, mouse, plasma, ip, mouse plasma, free drug, at the MTD or 75% of the MTD; Table 2; read-out: AUC. The class given is in vivo, mouse. Here is the method: The area under the concentration time curve for free drug (AUCf) in mouse plasma at the maximum tolerated dose (MTD) was determined either experimentally or by calculation.
The compound was formulated in a suitable vehicle (e.g. 0.9% saline, 5% DMSO in 0.9% saline) and administered intraperitoneally (i.p.) as single dose to CD-1 nude mice in a dose-escalating format using 1.33-fold dose increments.
The compound was administered to CD-1 nude mice in a suitable formulation as a single dose (i.p.) at the MTD. Blood samples were collected by retro-orbital sinus bleed or cardiac puncture after which the mouse was culled, or by serial bleeding from the tail vein. Typical time points were 15, 30, 60, and 120 min after administration. Blood was collected in a heparinised container and centrifuged to collect the plasma. The plasma concentration of the compound was determined by HPLC or LCMS using suitable sample preparation and analytical methods. Calibration was done with internal or external standards. The area under the concentration-time curve (AUC) for total (free plus bound) drug was calculated using the linear/log trapezoidal rule and extrapolation to infinity OR standard non-compartmental (PK) modelling.
Plasma protein binding was measured by the determination of the free fraction (FF) by equilibrium dialysis at 37° C. in 50% (v/v) mouse plasma in phosphate-buffered saline (pH 7.4), using a single drug concentration at or near the observed or extrapolated maximum concentration in plasma (Cmax). Compound concentrations after dialysis were determined by HPLC or LCMS.
AUCf for the compound administered as a single dose (i.p.) to CD-1 nude mice at the MTD can be estimated using the following regression equation: Log10(AUCf)=a+b×log Pneutral+c×log10(IC50)+d×log10(HCR)+e×log10(DMCL)+f×log10(kmet)+g×(log Pneutral)^2 where the coefficients are described in the following table: […]

Converted amounts (≈) assume the structure as drawn.

As usually defined, the IC50 is the concentration that gives 50% inhibition. Low readings indicate higher potency, high ones lower potency. In general, solubility refers to the dissolved amount per volume that the medium holds. A lower solubility goes with little dissolved substance. For orientation: AUC means the area under the concentration-time curve, a measure of exposure. On to `CCc1n[n+]([O-])c2ccc(OCCCN3CCOCC3)cc2[n+]1[O-]` [U, 3-Ethyl-6-[3-(4-morpholinyl)propoxy]-1,2,4-benzotriazine 1,4-Dioxide], for which, in data set [1], the IC50 worked out at 6.17 µM and the HCR was 166.2. For the same compound, the solubility in data set [2] came out at 46.7 mM (≈ 15.6 mg/mL). This compound returned an HT29 log kill in data set [3] of 1.66. Also, the area under the curve (AUC) in data set [4] was 162 µM·h.
In the same order, the values of `COCCOc1ccc2c(c1)[n+]([O-])c(NCCN(C)C)n[n+]2[O-]` [Q, N^1-[6-(2-Methoxyethoxy)-1,4-dioxido-1,2,4-benzotriazin-3-yl]-N^2,N^2-dimethyl-1,2-ethanediamine] are 4.98 µM, 162.0, 51.2 mM (≈ 16.6 mg/mL), 0.53 and 256 µM·h.
In the same order, the values of `CCc1ccc2c(c1)[n+]([O-])c(NCCCN1CCOCC1)n[n+]2[O-]` [S, 6-Ethyl-N-[3-(4-morpholinyl)propyl]-1,2,4-benzotriazin-3-amine 1,4-Dioxide] are 10.4 µM, 35.0, 54.9 mM (≈ 18.3 mg/mL), 0.82 and 94.9 µM·h.
The corresponding values for `COc1ccc2c(c1)[n+]([O-])c(NCCN(C)C)n[n+]2[O-]` [P, N^1-(6-Methoxy-1,4-dioxido-1,2,4-benzotriazin-3-yl)-N^2,N^2-dimethyl-1,2-ethanediamine] are 7.65 µM, 89.3, 45.5 mM (≈ 12.7 mg/mL), 1.84 and 240 µM·h.
For `CCOc1ccc2c(c1)[n+]([O-])c(NCCN(C)C)n[n+]2[O-]` [R, N^1,N^1-Dimethyl-N^2-(6-ethoxy-1,4-dioxido-1,2,4-benzotriazin-3-yl)-1,2-ethanediamine], in data set [1], inhibition was half-maximal at 2.6 µM (IC50) and the HCR is on record as 120.6. The compound also had a solubility in data set [2] of 50.3 mM (≈ 14.8 mg/mL). The same compound gave an HT29 log kill in data set [3] of 0.83. In data set [4], the area under the curve (AUC) was determined as 82.4 µM·h.
In the case of `Cc1ccc2c(c1)[n+]([O-])c(NCCCN1CCOCC1)n[n+]2[O-]` [O, 6-Methyl-N-[3-(4-morpholinyl)propyl]-1,2,4-benzotriazin-3-amine 1,4-Dioxide], in data set [1], the half-maximal inhibitory concentration (IC50) is 15.5 µM and the HCR was 24.7. Besides, the solubility in data set [2] came to 42.6 mM (≈ 13.6 mg/mL). Also, the HT29 log kill in data set [3] came out at 1.28. Further, the area under the curve (AUC) in data set [4] is 195 µM·h.
Consider `CCc1n[n+]([O-])c2ccc(OCCN(C)C)cc2[n+]1[O-]` [T, 2-[(3-Ethyl-1,4-dioxido-1,2,4-benzotriazin-6-yl)oxy]-N, N-dimethylethaneamine], for which, in data set [1], inhibition was half-maximal at 1.33 µM (IC50) and the HCR turned out to be 307.2. Also, in data set [2], the concentration in solution (solubility) came to 48.5 mM (≈ 13.5 mg/mL). The compound further had an HT29 log kill in data set [3] of 0.88. In data set [4], the AUC stood at 55.7 µM·h.
